# Literature values in patent publication US20090180950A1, “Polychromatic, diversely-sized particles for angiography” (The Trustees of Columbia University in the City of New York, priority 2006, published 2009).
# Tested on: plasma protein
# Details: fluorescein
smiles,measurement,setting,value
"O=C1OC2(c3ccc(O)cc3Oc3cc(O)ccc32)c2ccccc21 [fluorescein, Sodium fluorescein]",bound to plasma protein,fraction bound,70-80%
same,unbound (free) fraction,fraction not bound to plasma protein,20-30%
